In patent US6641811B1, “Use of angiotensin II inhibitors to prevent malignancies associated with immunosuppression” (Cornell Research Foundation, Inc., priority 2000, dated 2003):

Legend:
Assay type in all cases: in vivo
[1] = system: human bladder cancer cells (T24); assay: Pulmonary metastases of T24 human bladder cancer cells injected via tail vein into SCID-beige mice; conditions: for Number of metastases (mean ± SEM), T-24, with Enalapril: enalapril 10 mg/kg intraperitoneal twice a day, alone or with Cyclosporine 20 mg/kg or FK506 4 mg/kg every other day; for Incidence of tumors as compared to controls: summary of Table I (T24 and Renca) and Example 3 (T-24), in the absence of immunosuppressive agent
Procedure: (§1) In vivo tumor growth. Murine renal cell adenocarinoma cells (1×10^5 in Hanks balanced salt solution), murine Lewis lung carcinoma cells (1×10^5 cells), or human bladder cancer cells (1×10^5 cells) are injected via the tail vein into 6-wk old male SCID-beige mice. […] On day 19 or 23 post tumor inoculation, mice are killed and the number of pulmonary metastases is determined […] endotracheal insufflation of lungs with 15% India ink solution and bleaching the harvested lungs in Fekete's solution.
(§2) SCID-beige (immunodeficient) mice were inoculated with human bladder cancer cells (T24) or murine renal cancer cells (Renca). Tumor bearing mice were then treated with cyclosporin A or the angiotensin II receptor blocker, losartan or both.
(§3) Tumor cells (1×10^5 in HBSS) were injected via the tail vein into SCID-beige mice. […] The mice were sacrificed on day 19 (Renca) and day 23 (T24) and the number of metastases was counted as described (reference 7).

pulmonary metastasis = assay: Tumor progression / development of pulmonary metastasis in experimental animals (Example 2)
[2] = system: murine renal cancer cells (Renca); assay: Pulmonary metastases of Renca murine renal cancer cells injected via tail vein into SCID-beige mice; conditions: 1×10^5 Renca cells via tail vein, sacrificed day 19, CsA 20 mg/kg SQ QOD, Losartan 10 mg/kg SQ BID, untreated 125 ± 22
Procedure: as §1, with “solution. The effect of angiotensin II inhibitors and anti-angiotensin II mAbs and the control IgG1 mAbs on CsA-induced increase in the number of pulmonary metastases is determined by intraperitoneal administration of 200 μg of mAbs, on a daily basis starting from day −1 to day 19 post tumor inoculation.” for “solution.”
as §2, §3

[3] = SCID beige mice, 100,000 T-24 cells by tail vein

| SMILES | Number of metastases (mean ± SEM), T-24, with Enalapril [1, 3] | Incidence of tumors as compared to controls [1] | Effect on development of pulmonary metastasis (pulmonary metastasis) | Number of metastases (mean ± SEM), T-24, without Enalapril ([1]; SCID beige mice, 100,000 T-24 cells by tail vein, Cyclosporine 20 mg/kg or FK506 4 mg/kg every other day, no enalapril, untreated 38 ± 4) | Number of Pulmonary Metastases (Mean ± SEM), T24 ([1]; SCID-beige mice, 1×10^5 T24 cells via tail vein, sacrificed day 23, CsA 20 mg/kg SQ QOD, Losartan 10 mg/kg SQ BID, untreated 25 ± 7) | Number of Pulmonary Metastases (Mean ± SEM), Renca [2] |
| --- | --- | --- | --- | --- | --- | --- |
| CCOC(=O)[C@H](CCc1ccccc1)N[C@@H](C)C(=O)N1CCC[C@H]1C(=O)O [Enalapril] | 21 ± 3 | reduces the incidence of tumors as compared to controls | prevented the development of pulmonary metastasis |  |  |  |
| C=CC[C@@H]1/C=C(\C)C[C@H](C)C[C@H](OC)[C@H]2O[C@@](O)(C(=O)C(=O)N3CCCC[C@H]3C(=O)O[C@H](/C(C)=C/[C@@H]3CC[C@@H](O)[C@H](OC)C3)[C@H](C)[C@@H](O)CC1=O)[C@H](C)C[C@@H]2OC [FK506] | 30 ± 2 |  |  | 72 ± 21 |  |  |
| CCCCc1nc(Cl)c(CO)n1Cc1ccc(-c2ccccc2-c2nn[nH]n2)cc1 [Losartan] |  | reduces the incidence of tumors as compared to controls |  |  | 12 ± 3 | 67 ± 15 |
